# Experiments:
# [1] = system: Aβ40 in conditioned medium of cells stably expressing Amyloid Precursor Protein (APP); experiment: In vitro BACE cell-based assay (HEK cell assay), Aβ40 sandwich ELISA; settings: Homo sapiens, HEK293, 24 h, inhibition of Aβ40, 24 h incubation, read-out: HEK cell assay (IC50 class)
# Experimental: In Vitro BACE Cell-Based Assay:
# The cell-based assay measures inhibition or reduction of Aβ40 in conditioned medium of test compound treated cells expressing amyloid precursor protein.
# Cells stably expressing Amyloid Precursor Protein (APP) were plated at a density of 40K cells/well in 96 well plates (Costar). The cells were cultivated for 24 hours at 37° C. and 5% CO2 in DMEM supplemented with 10% FBS. The test compounds were then added to cells in 10-point dose response concentrations with the starting concentration being either 100 μM or 10 μM. The compounds were diluted from stock solutions in DMSO and the final DMSO concentration of the test compounds on cells was 0.1%. After 24 h of incubation with the test compounds the supernatant conditioned media was collected and the Aβ 40 levels were determined using a sandwich ELISA. The IC50 of the compound was calculated from the percent of control or percent inhibition of Aβ 40 as a function of the concentration of the test compound.
# The sandwich ELISA to detect Aβ 40 was performed in 96 well microtiter plates, which were pre-treated with goat anti-rabbit IgG (Pierce). The capture and detecting antibody pair that were used to detect Aβ 40 from cell supernatants were affinity purified pAb40 (Biosource) and biotinylated 6E10 (Signet Labs Inc.), respectively. The optimal concentration for the pAb40 antibody was 3 μg/ml in Superblock/TBS (Pierce) that was supplemented with 0.05% Tween 20 (Sigma). Optimal concentration for the detection antibody 6E10-biotinylated was 0.5 μg/ml in Superblock/TBS (Pierce) that had been supplemented with 2% normal goat serum and 2% normal mouse serum.
# Cellular supernatants were incubated with the capture antibody for 3 h at 4° C., followed by 3 wash steps in TBS-tween (0.05%). The detecting antibody incubation was for 2 h at 4° C., again followed by the wash steps as described previously. The final readout of the ELISA is Time-Resolved Fluorescence (counts per minute) using Delfia reagents Streptavidin-Europium and Enhancement solutions (Perkin Elmer) and the Victor 2 multilabel counter (Perkin Elmer).
# [2] = molecular target: BACE1 (Homo sapiens, UniProt P56817); experiment: In vitro enzymatic BACE FRET assay; type: biochemical; settings: beta secretase enzyme 0.2 nM, FRET substrate 50 nM, pH 4.2; read-out: BACE1 FRET assay (IC50 class)
# Experimental: In Vitro Enzymatic BACE FRET (Fluorescence Resonance Energy Transfer) Assay (Enzyme Assay Data in Table 1)
# The assay buffer used in this screen is 0.05 M acetate, pH 4.2, 10% DMSO final, 100 uM genapol (which is a nonionic detergent, below its Critical Micelle Concentration). The beta secretase enzyme (0.2 nM) is pre-incubated for one hour with inhibitors, typically in about 1 uL of DMSO according to a serial dilution, are added thereto. The assay is effectively started by the addition of FRET substrate (50 nM) and the combination is incubated for one hour. The FRET assay is terminated with by addition of Tris buffer, which raises the pH to neutrality, and the fluorescence is determined. The FRET substrate is a peptide with commercially available fluorophore and quencher, on opposite sides of the BACE cleavage site. Proteolytic cleavage of the FRET substrate releases quenching of fluorescence (excitation […] and […]).
# Of the compounds tested, the in-vitro BACE FRET enzyme data for each of Examples 1-220, where available at the time of filing this application, is provided in Table 1.
# Sequence of BACE1 (P56817 46-501, species assumed): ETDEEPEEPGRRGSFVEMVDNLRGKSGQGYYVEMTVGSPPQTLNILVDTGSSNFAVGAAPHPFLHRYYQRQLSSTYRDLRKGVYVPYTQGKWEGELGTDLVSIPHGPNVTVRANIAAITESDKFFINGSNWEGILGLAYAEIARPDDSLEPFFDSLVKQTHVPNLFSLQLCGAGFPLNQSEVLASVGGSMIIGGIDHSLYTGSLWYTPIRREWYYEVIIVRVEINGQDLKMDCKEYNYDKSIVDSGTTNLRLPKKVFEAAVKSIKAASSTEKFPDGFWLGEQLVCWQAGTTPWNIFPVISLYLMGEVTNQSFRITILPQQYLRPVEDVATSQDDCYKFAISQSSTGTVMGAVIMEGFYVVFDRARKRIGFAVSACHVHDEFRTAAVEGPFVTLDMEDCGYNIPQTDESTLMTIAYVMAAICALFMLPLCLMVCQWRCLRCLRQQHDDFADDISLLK
IC50 [1] [nM],IC50 [2] [nM],SMILES
1010 to 5000,100 to 500,"Cc1cccc(-c2ncc3ccccn23)c1-c1ccc2nc(N)c(N3CCOCC3)cc2c1 [Example 30, 6-(2-(imidazo[1,5-a]pyridin-3-yl)-6-methylphenyl)-3-morpholinoquinolin-2-amine]"
> 5000,100 to 500,"Cc1coc(-c2cccc(C)c2-c2ccc3nc(N)c(N4CCOCC4)cc3c2)n1 [Example 31, 6-(2-methyl-6-(4-methyloxazol-2-yl)phenyl)-3-morpholinoquinolin-2-amine]"
> 5000,1010 to 5000,"Cc1cnc(-c2cccc(C)c2-c2ccc3nc(N)c(N4CCOCC4)cc3c2)o1 [Example 32, 6-(2-methyl-6-(5-methyloxazol-2-yl)phenyl)-3-morpholinoquinolin-2-amine]"
1010 to 5000,100 to 500,"Nc1nc2ccc(-c3ccccc3-n3ncc4c3CCCC4)cc2cc1N1CCOCC1 [Example 33, 3-morpholino-6-(2-(4,5,6,7-tetrahydro-1H-indazol-1-yl)phenyl)quinolin-2-amine]"
1010 to 5000,< 100,"Cc1cccc(-n2cc(Cl)c(C)n2)c1-c1ccc2nc(N)c(N3CCOCC3)cc2c1 [Example 34, 6-(2-(4-chloro-3-methyl-1H-pyrazol-1-yl)-6-methylphenyl)-3-morpholinoquinolin-2-amine]"
1010 to 5000,1010 to 5000,"Cc1cccc(C(O)c2cnccn2)c1-c1ccc2nc(N)c(N3CCOCC3)cc2c1 (stereo not drawn) [Example 36, (2-(2-amino-3-morpholinoquinolin-6-yl)-3-methylphenyl)(pyrazin-2-yl)methanol]"
1010 to 5000,501 to 1000,"Cc1cccc(Cc2cnccn2)c1-c1ccc2nc(N)c(N3CCOCC3)cc2c1 [Example 37, 6-(2-methyl-6-(pyrazin-2-ylmethyl)phenyl)-3-morpholinoquinolin-2-amine]"
100 to 500,< 100,"Cc1cccc(C(=O)c2ccccn2)c1-c1ccc2nc(N)c(C3CCOCC3)cc2c1 [Example 38, (2-(2-amino-3-(tetrahydro-2H-pyran-4-yl)quinolin-6-yl)-3-methylphenyl)(pyridin-2-yl)methanone]"
501 to 1000,< 100,"Cc1cccc(C(=O)N2CCCC2)c1-c1cc2cc(N3CCOCC3)c(N)nc2cc1F [Example 39, (2-(2-amino-7-fluoro-3-morpholinoquinolin-6-yl)-3-methylphenyl)(pyrrolidin-1-yl)methanone]"
1010 to 5000,< 100,"Cc1cccc(C#CC(C)(C)C)c1-c1ccc2nc(N)c(N3CCOCC3)cc2c1 [Example 40, 6-(2-(3,3-dimethylbut-1-ynyl)-6-methylphenyl)-3-morpholinoquinolin-2-amine]"
501 to 1000,< 100,"Cc1cccc(C(=O)N(C)CC(C)(C)C)c1-c1ccc2nc(N)c(N3CCOCC3)cc2c1 [Example 41, 2-(2-amino-3-morpholinoquinolin-6-yl)-N,3-dimethyl-N-neopentylbenzamide]"
501 to 1000,< 100,"Nc1nc2ccc(-c3c(Cl)cccc3C(=O)N3CCCC3)cc2cc1N1CCOCC1 [Example 42, (2-(2-amino-3-morpholinoquinolin-6-yl)-3-chlorophenyl)(pyrrolidin-1-yl)methanone]"
1010 to 5000,100 to 500,"Cc1cccc(C(=O)N2CCOC(C)(C)C2)c1-c1ccc2nc(N)c(N3CCOCC3)cc2c1 [Example 43, (2-(2-amino-3-morpholinoquinolin-6-yl)-3-methylphenyl)(2,2-dimethylmorpholino)methanone]"
100 to 500,< 100,"CC(C)(C)C#Cc1cccc(C(=O)N2CCCC2)c1-c1ccc2nc(N)c(N3CCOCC3)cc2c1 [Example 44, (2-(2-amino-3-morpholinoquinolin-6-yl)-3-(3,3-dimethylbut-1-ynyl)phenyl)(pyrrolidin-1-yl)methanone]"
< 100,< 100,"CC(C)(C)CCc1cccc(C(=O)N2CCCC2)c1-c1ccc2nc(N)c(N3CCOCC3)cc2c1 [Example 45, (2-(2-amino-3-morpholinoquinolin-6-yl)-3-(3,3-dimethylbutyl)phenyl)(pyrrolidin-1-yl)methanone]"
100 to 500,< 100,"CC(C)(C)CC(=O)c1cccc(C(=O)N2CCCC2)c1-c1ccc2nc(N)c(N3CCOCC3)cc2c1 [Example 46, 1-(2-(2-amino-3-morpholinoquinolin-6-yl)-3-(pyrrolidine-1-carbonyl)phenyl)-3,3-dimethylbutan-1-one]"
< 100,< 100,"CC(C)(C)CCc1cccc(C(=O)N2CC[C@@H](F)C2)c1-c1ccc2nc(N)c(N3CCOCC3)cc2c1 [Example 47, (R)-(2-(2-amino-3-morpholinoquinolin-6-yl)-3-(3,3-dimethylbutyl)phenyl)(3-fluoropyrrolidin-1-yl)methanone]"
1010 to 5000,501 to 1000,"Cc1cccc(N2CCOCC2=O)c1-c1ccc2nc(N)c(N3CCOCC3)cc2c1 [Example 48, 4-(2-(2-amino-3-morpholinoquinolin-6-yl)-3-methylphenyl)morpholin-3-one]"
1010 to 5000,100 to 500,"Cc1cccc(N2CC(C)(C)OCC2=O)c1-c1ccc2nc(N)c(N3CCOCC3)cc2c1 [Example 49, 4-(2-(2-amino-3-morpholinoquinolin-6-yl)-3-methylphenyl)-6,6-dimethylmorpholin-3-one]"
1010 to 5000,501 to 1000,"Cc1cccc(N(C)C(=O)CC(C)(C)C)c1-c1ccc2nc(N)c(N3CCOCC3)cc2c1 [Example 50, N-(2-(2-amino-3-morpholinoquinolin-6-yl)-3-methylphenyl)-N,3,3-trimethylbutanamide]"
> 5000,501 to 1000,"CC(C)(C)COc1ccccc1-c1ccc2nc(N)c(N3CCOCC3)cc2c1 [Example 51, 3-morpholino-6-(2-(neopentyloxy)phenyl)quinolin-2-amine]"
> 5000,< 100,"Cc1cccc(OCC(C)(C)C)c1-c1ccc2nc(N)c(N3CCOCC3)cc2c1 [Example 52, 6-(2-methyl-6-(neopentyloxy)phenyl)-3-morpholinoquinolin-2-amine]"
> 5000,100 to 500,"Nc1nc2ccc(-c3ccccc3OCc3ccccc3)cc2cc1N1CCOCC1 [Example 53, 6-(2-(benzyloxy)phenyl)-3-morpholinoquinolin-2-amine]"
1010 to 5000,501 to 1000,"Cc1cccc(OC2CCOC2)c1-c1ccc2nc(N)c(N3CCOCC3)cc2c1 (stereo not drawn) [Example 54, 6-(2-methyl-6-(tetrahydrofuran-3-yloxy)phenyl)-3-morpholinoquinolin-2-amine]"
> 5000,100 to 500,"Cc1cccc(Nc2ccccc2)c1-c1ccc2nc(N)c(N3CCOCC3)cc2c1 [Example 55, 6-(2-methyl-6-(phenylamino)phenyl)-3-morpholinoquinolin-2-amine]"
< 100,< 100,"Cc1cccc(C(=O)N2CCCC2)c1-c1ccc2nc(N)c(N3C[C@@H]4C[C@H]3CO4)cc2c1 [Example 56, (2-(2-amino-3-((1S,4S)-2-oxa-5-azabicyclo[2.2.1]heptan-5-yl)quinolin-6-yl)-3-methylphenyl)(pyrrolidin-1-yl)methanone]"
1010 to 5000,100 to 500,"Cc1cccc(C(=O)N2CCCC2)c1-c1ccc2nc(N)c(C3=CCCC3)cc2c1 [Example 57, (2-(2-amino-3-cyclopentenylquinolin-6-yl)-3-methylphenyl)(pyrrolidin-1-yl)methanone]"

# From patent US8735384B2, “Amino heteroaryl compounds as beta-secretase modulators and methods of use” (Amgen Inc., priority 2010, dated 2014)
